Test results from the OligoGym collection.
HELM strings list units from the 5' end as sugar, base in round brackets, then linkage (d deoxyribose, r ribose, m 2'-O-methyl, p phosphodiester). Strings are as the collection lists them; they lack the last nucleoside at the 3' end of the tested compound. [moe] = 2'-O-(2-methoxyethyl) (MOE); [sp] = phosphorothioate linkage; [m5C] = 5-methylcytosine

What follows are substances tested against ATXN3 (assay: mouse, dose not given). Settings: ASO.

| Substance | 3 h FOB score |
| --- | --- |
| RNA1{[moe](G)[sp].[moe]([m5C])p.[moe]([m5C])p.[moe](A)p.[moe](A)p.d(T)[sp].d(A)[sp].d(T)[sp].d(T)[sp].d(T)[sp].d(A)[sp].d(T)[sp].d(A)[sp].d(G)[sp].d(G)[sp].[moe](T)p.[moe](G)p.[moe]([m5C])[sp].[moe](T)}$$$$ (last 3' nucleoside missing) | 1.5 score 0-7 |
| RNA1{[moe](G)[sp].[moe]([m5C])p.[moe](A)p.[moe](T)p.[moe](A)p.d(T)[sp].d(T)[sp].d(G)[sp].d(G)[sp].d(T)[sp].d(T)[sp].d(T)[sp].d(T)[sp].d([m5C])[sp].d(T)[sp].[moe]([m5C])p.[moe](A)p.[moe](T)[sp].[moe](T)}$$$$ (last 3' nucleoside missing) | 2.5 score 0-7 |
| RNA1{[moe](G)[sp].[moe]([m5C])p.[moe](T)[sp].[moe]([m5C])[sp].[moe](A)[sp].d(T)[sp].d(T)[sp].d(T)[sp].d(A)[sp].d(T)[sp].d(T)[sp].d([m5C])[sp].d(T)[sp].d([m5C])[sp].d(A)[sp].[moe](A)[sp].[moe](G)p.[moe](T)[sp].[moe](A)}$$$$ (last 3' nucleoside missing) | 2 score 0-7 |
| RNA1{[moe](G)[sp].[moe]([m5C])p.[moe](A)p.[moe]([m5C])p.[moe]([m5C])p.[moe](A)p.d(T)[sp].d(A)[sp].d(T)[sp].d(A)[sp].d(T)[sp].d(A)[sp].d(T)[sp].d([m5C])[sp].d(T)[sp].d([m5C])[sp].[moe](A)p.[moe](G)[sp].[moe](A)}$$$$ (last 3' nucleoside missing) | 0.25 score 0-7 |
| RNA1{[moe](G)[sp].[moe]([m5C])p.[moe]([m5C])[sp].[moe](A)[sp].[moe](A)[sp].d(A)[sp].d(A)[sp].d(T)[sp].d(A)[sp].d([m5C])[sp].d(T)[sp].d(A)[sp].d(A)[sp].d([m5C])[sp].d(A)[sp].[moe](T)[sp].[moe]([m5C])p.[moe](A)[sp].[moe](G)}$$$$ (last 3' nucleoside missing) | 2.5 score 0-7 |
